Paper PMC10074544 (Cell chemical biology, 2023)
Structures can show the parent of a compound that is named as a salt. Values belong to the molecule of their own block, whether it stands above or below them. Residues, ends and D or L forms follow the SMILES beside them. *: point of attachment. Cbz = O=C(OCc1ccccc1)*

How the values were obtained:
CDK9 [1] = biological target: T1, CDK9 (Homo sapiens, UniProt P50750); test: CDK9 degradation in MOLT4 cells; type: cell-based; details: for effect of pre-treatment on CDK9 degradation by 955: pre-treatment before 955
T1 sequence (P50750 whole entry): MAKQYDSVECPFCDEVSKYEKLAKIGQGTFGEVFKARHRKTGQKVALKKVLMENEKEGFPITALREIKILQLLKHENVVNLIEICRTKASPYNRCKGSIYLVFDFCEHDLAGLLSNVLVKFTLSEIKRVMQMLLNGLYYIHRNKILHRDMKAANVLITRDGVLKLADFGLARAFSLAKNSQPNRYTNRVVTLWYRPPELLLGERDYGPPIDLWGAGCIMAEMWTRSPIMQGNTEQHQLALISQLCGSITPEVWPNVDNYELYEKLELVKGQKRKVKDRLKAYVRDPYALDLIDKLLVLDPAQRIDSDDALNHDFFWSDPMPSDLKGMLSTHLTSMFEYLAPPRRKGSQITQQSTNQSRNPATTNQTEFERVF

EML4-ALK = EML4-ALK (Homo sapiens, UniProt Q9HC35+Q9UM73); test: EML4-ALK degradation in NCI-H2228 cells; type: cell-based; details: for effect of pre-treatment on EML4-ALK degradation induced by 819: NCI-H2228 cells
CDK10 [2] = biological target: T2, CDK10 (Homo sapiens, UniProt Q15131); test: CDK10 degradation in MOLT4 cells; type: cell-based
T2 sequence (Q15131 whole entry): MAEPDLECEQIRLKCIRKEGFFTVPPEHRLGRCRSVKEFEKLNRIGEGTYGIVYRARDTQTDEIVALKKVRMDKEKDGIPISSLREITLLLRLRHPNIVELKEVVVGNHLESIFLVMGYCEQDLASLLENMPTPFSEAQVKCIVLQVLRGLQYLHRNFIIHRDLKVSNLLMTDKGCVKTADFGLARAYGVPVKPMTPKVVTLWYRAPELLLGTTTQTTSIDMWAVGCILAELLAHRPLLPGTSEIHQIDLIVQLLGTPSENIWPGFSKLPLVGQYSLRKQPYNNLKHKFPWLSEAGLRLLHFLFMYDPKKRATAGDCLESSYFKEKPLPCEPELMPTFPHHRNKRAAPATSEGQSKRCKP

LNCaP = test: Viability; type: cell-based, human
22RV1 = test: Viability; type: cell-based, human
PC3 = test: Viability; type: cell-based, human
DU145 = test: Viability; type: cell-based, human
CDK9 [3] = biological target: T1, CDK9; test: TMT-based global proteomics in MOLT4 cells, CDK9; type: cell-based
[4] = tested on: LNCaP prostate cancer cells; test: Cell killing in KEAP1 siRNA- vs control siRNA-treated LNCaP cells; type: cell-based, human; details: 24 h treatment
H1299 lung cancer cells = test: Cell killing in KEAP1 siRNA- vs control siRNA-treated H1299 cells; type: cell-based, human; details: 24 h treatment
CDK9 [5] = details: read-out: IC50 CDK9; cited from earlier work
CDK10 [6] = biological target: T2, CDK10; details: MOLT4 lysates; cited from earlier work
CDK9 [7] = details: cited from earlier work
[8] = biological target: CDK9:955:KEAP1 ternary complex (Homo sapiens, UniProt P50750+Q14145); test: NanoBRET ternary complex formation assay in live 293T cells; type: cell-based; details: HiBit-CDK9 and Halo-KEAP1, 6 h
Chain of CDK9:955:KEAP1 ternary complex (P50750 whole entry): as the sequence (P50750 whole entry) above
Chain of CDK9:955:KEAP1 ternary complex (Q14145 whole entry): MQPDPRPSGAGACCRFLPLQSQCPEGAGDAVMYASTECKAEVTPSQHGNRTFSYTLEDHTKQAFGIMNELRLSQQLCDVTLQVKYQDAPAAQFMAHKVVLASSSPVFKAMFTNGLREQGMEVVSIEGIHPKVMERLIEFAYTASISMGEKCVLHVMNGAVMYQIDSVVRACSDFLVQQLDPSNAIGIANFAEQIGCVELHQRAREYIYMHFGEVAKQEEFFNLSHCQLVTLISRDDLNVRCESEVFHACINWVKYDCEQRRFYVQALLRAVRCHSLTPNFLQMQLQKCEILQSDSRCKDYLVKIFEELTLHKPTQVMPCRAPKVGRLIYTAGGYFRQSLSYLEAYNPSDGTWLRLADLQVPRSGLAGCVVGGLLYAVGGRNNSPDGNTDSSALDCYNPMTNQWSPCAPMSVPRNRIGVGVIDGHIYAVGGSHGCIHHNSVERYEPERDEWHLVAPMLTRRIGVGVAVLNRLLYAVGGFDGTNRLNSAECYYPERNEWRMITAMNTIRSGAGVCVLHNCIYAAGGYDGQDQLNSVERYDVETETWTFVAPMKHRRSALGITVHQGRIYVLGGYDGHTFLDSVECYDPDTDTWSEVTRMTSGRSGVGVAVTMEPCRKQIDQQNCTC
Chain of CDK9:955:KEAP1 ternary complex (O60563 whole entry partner): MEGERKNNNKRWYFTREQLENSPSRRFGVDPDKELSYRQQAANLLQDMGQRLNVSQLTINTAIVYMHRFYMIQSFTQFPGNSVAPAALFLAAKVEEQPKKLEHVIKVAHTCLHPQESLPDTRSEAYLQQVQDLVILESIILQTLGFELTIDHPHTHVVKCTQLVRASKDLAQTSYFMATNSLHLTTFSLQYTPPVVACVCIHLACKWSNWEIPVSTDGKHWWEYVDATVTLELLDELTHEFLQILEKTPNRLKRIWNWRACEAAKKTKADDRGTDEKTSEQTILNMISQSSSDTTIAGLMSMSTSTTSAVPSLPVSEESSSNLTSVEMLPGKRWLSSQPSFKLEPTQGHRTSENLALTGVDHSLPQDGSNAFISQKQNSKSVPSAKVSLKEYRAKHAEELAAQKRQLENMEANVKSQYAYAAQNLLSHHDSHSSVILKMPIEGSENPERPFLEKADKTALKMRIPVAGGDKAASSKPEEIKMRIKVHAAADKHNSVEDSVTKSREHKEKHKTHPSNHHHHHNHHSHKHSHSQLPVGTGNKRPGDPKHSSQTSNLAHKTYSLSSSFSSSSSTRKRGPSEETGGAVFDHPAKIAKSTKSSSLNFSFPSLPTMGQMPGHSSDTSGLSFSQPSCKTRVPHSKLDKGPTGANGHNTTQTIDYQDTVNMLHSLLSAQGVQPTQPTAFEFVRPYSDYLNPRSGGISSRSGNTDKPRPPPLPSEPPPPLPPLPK

MOLT4 cells = test: PARP cleavage; type: cell-based, human; details: compared with SNS-032
purified KEAP1 protein = purified KEAP1 protein (Homo sapiens, UniProt Q14145); test: Gel-based competitive ABPP assay with IA-alkyne; type: binding; details: serially diluted compound, purified His-KEAP1
Chain of purified KEAP1 protein (Q14145 whole entry): as the sequence (Q14145 whole entry) above

c-Myc and MCL-1 [9] = test: c-Myc and MCL-1 expression in MOLT4 cells; type: cell-based, human; details: mRNA and protein
[10] = tested on: CDK9-dependent transcription; test: RNA-seq in MOLT4 cells; type: cell-based, human; details: 6 h treatment, compared with SNS-032
CDK9 [11] = biological target: T1, CDK9; test: CDK9 degradation in LNCaP cells; type: cell-based
c-Myc and MCL-1 [12] = test: c-Myc and MCL-1 expression in LNCaP cells; type: cell-based, human
V5-TurboID-CDK9 = V5-TurboID-CDK9 (Homo sapiens, UniProt P50750+Q14145); test: TurboID-bait assay in 293T cells; type: cell-based
Chain of V5-TurboID-CDK9 (P50750 whole entry): as the sequence (P50750 whole entry) above
Chain of V5-TurboID-CDK9 (Q14145 whole entry): as the sequence (Q14145 whole entry) above
Chain of V5-TurboID-CDK9 (O60563 whole entry partner): as the sequence (O60563 whole entry partner) above

CDK9 [13] = biological target: T1, CDK9; test: CDK9 degradation in KEAP1 knockout / rescued H1299 cells; type: cell-based
[14] = PL or SNS-032 alone or their combination (Figure 1E)
[15] = 955 versus 336 with reduced Michael acceptors (Figure 2H)

Structure (SMILES): CO/C1=C\C(C)=C\[C@@H](C)[C@@H](O)[C@@H](C)C/C(C)=C/C=C/[C@H](OC)[C@@H]([C@@H](C)[C@@H](O)[C@H](C)[C@@]2(O)C[C@@H](O)[C@H](C)[C@@H](C(C)C)O2)OC1=O [Baf-A1]
- effect of pre-treatment on CDK9 degradation by 955 (CDK9 [1]): does not block

- effect of pre-treatment on CDK9 degradation by 955 (CDK9 [1]): blocks
Structure (SMILES): CC1(C)CC[C@]2(C(=O)n3ccnc3)CC[C@]3(C)[C@H](C(=O)C=C4[C@@]5(C)C=C(C#N)C(=O)C(C)(C)[C@@H]5CC[C@]43C)[C@@H]2C1 [CDDO-IM]

- effect of pre-treatment on CDK9 degradation by 955 (CDK9 [1]): blocks
Structure (SMILES): COC(=O)[C@]12CCC(C)(C)C[C@H]1[C@H]1C(=O)C=C3[C@@]4(C)C=C(C#N)C(=O)C(C)(C)[C@@H]4CC[C@@]3(C)[C@]1(C)CC2 [CDDO-ME]

- effect of pre-treatment on CDK9 degradation by 955 (CDK9 [1]): blocks
- effect of pre-treatment on EML4-ALK degradation induced by 819 (EML4-ALK): blocks
Structure (SMILES): COC(=O)/C=C/C(=O)OC [DMF, dimethyl fumarate]

Structure (SMILES): CC(C)C[C@@H](C=O)NC(=O)[C@H](CC(C)C)NC(=O)[C@H](CC(C)C)NC(=O)OCc1ccccc1 [MG132] (Cbz-Leu-Leu-Leu-aldehyde)
- effect of pre-treatment on CDK9 degradation by 955 (CDK9 [1]): blocks
- effect of pre-treatment on CDK10 degradation induced by 955 (CDK10 [2]): blocks
- effect of pre-treatment on EML4-ALK degradation induced by 819 (EML4-ALK): blocks

- effect of pre-treatment on CDK9 degradation by 955 (CDK9 [1]): blocks
- effect of pre-treatment on CDK10 degradation induced by 955 (CDK10 [2]): blocks
- effect of pre-treatment on EML4-ALK degradation induced by 819 (EML4-ALK): blocks
Structure (SMILES): NS(=O)(=O)OC[C@@H]1C[C@@H](n2ccc3c(N[C@H]4CCc5ccccc54)ncnc32)C[C@@H]1O [MLN4924]

Structure (SMILES): COc1cc(/C=C/C(=O)N2CCC=CC2=O)cc(OC)c1OC [PL, (E)-1-(3-(3,4,5-trimethoxyphenyl)acryloyl)-5,6-dihydropyridin-2(1H)-one]
- CDK9 degradation (CDK9 [1]; [14]): none of these treatments degraded CDK9
- effect of pre-treatment on CDK9 degradation by 955 (CDK9 [1]): blocks
- anti-proliferative effect (LNCaP; within 3 μM): no anti-proliferative effect
- anti-proliferative effect (22RV1; 22RV1, within 3 μM): no anti-proliferative effect
- anti-proliferative effect (PC3; PC3, within 3 μM): no anti-proliferative effect
- anti-proliferative effect (DU145; DU145, within 3 μM): no anti-proliferative effect

- effect of pre-treatment on CDK9 degradation by 955 (CDK9 [1]): blocks
Structure (SMILES): CCOC(=O)c1ccc(N2NC(=O)/C(=C/c3ccc([N+](=O)[O-])o3)C2=O)cc1 [PYR-41]

- effect of pre-treatment on CDK9 degradation by 955 (CDK9 [1]): does not block
Structure (SMILES): CC(C)[C@H](NC(=O)c1ccc2ccccc2n1)C(=O)N[C@@H](CC(=O)O)C(=O)COc1c(F)cccc1F [QVD]

- CDK9 degradation (CDK9 [1]; [14]): none of these treatments degraded CDK9
- effect of pre-treatment on CDK9 degradation by 955 (CDK9 [1]): blocks
- CDK9 degradation (CDK9 [1]; short-term treatment (6 h)): could not
- CDK9 level (global proteome) (CDK9 [3]; 1 μM for 6 h): no significant effect
- CDK10 degradation (CDK10 [2]): no effect
- EC50 (LNCaP; Homo sapiens, 72 h, read-out: EC50 (antiproliferative)): > 100 nM
- EC50 (22RV1; Homo sapiens, 22Rv1, 72 h, read-out: EC50 (antiproliferative)): > 100 nM
- EC50 (PC3; Homo sapiens, PC-3, 72 h, read-out: EC50 (antiproliferative)): > 100 nM
- EC50 (DU145; Homo sapiens, DU-145, 72 h, read-out: EC50 (antiproliferative)): > 100 nM
Structure (SMILES): CC(C)(C)c1cnc(CSc2cnc(NC(=O)C3CCNCC3)s2)o1 [SNS-032, N-(5-(((5-(tert-butyl)oxazol-2-yl)methyl)thio)thiazol-2-yl)piperidine-4-carboxamide]
- effect of KEAP1 knockdown on cytotoxicity [4]: no significant effect
- effect of KEAP1 knockdown on cytotoxicity (H1299 lung cancer cells): no significant effect
- binding to CDK10 (CDK10 [6]): moderate binding

- effect of pre-treatment on CDK9 degradation by 955 (CDK9 [1]): blocks
Structure (SMILES): NS(=O)(=O)OC[C@H]1C[C@@H](Nc2ccnc3cc(-c4cccc(SC(F)(F)F)c4)nn23)[C@H](O)[C@@H]1O [TAK-243]

Structure (SMILES): CC(C)(C)c1cnc(CSc2cnc(NC(=O)C3CCN(CC(=O)NCCOCCOCCOCCNc4cccc5c4C(=O)N(C4CCC(=O)NC4=O)C5=O)CC3)s2)o1 (stereo not drawn) [THAL-SNS-032]
- selectivity of degradation among SNS-032 targets (CDK9 [7]): could only degrade CDK9 but not other known SNS-032 targets

- effect of pre-treatment on CDK9 degradation by 955 (CDK9 [1]): blocks
Structure (SMILES): CC(C)C[C@H](NC(=O)[C@H](Cc1ccccc1)NC(=O)c1cnccn1)B(O)O [bortezomib]

- effect of pre-treatment on CDK9 degradation by 955 (CDK9 [1]): does not block
Structure (SMILES): CCN(CC)CCCC(C)Nc1ccnc2cc(Cl)ccc12 (stereo not drawn) [chloroquine]

- CDK9 degradation (CDK9 [1]; [15]): does not induce CDK9 degradation
- formation of CDK9:KEAP1 ternary complex (nanoBRET) [8]: negligible
Structure (SMILES): COc1cc(CCC(=O)N2CCCCC2=O)cc(OC)c1OCCN1CCN(C(=O)CN2CCC(C(=O)Nc3ncc(SCc4ncc(C(C)(C)C)o4)s3)CC2)CC1 [compound 336, N-(5-(((5-(tert-butyl)oxazol-2-yl)methyl)thio)thiazol-2-yl)-1-(2-(4-(2-(2,6-dimethoxy-4-(3-oxo-3-(2-oxopiperidin-1-yl)propyl)phenoxy)ethyl)piperazin-1-yl)-2-oxoethyl)piperidine-4-carboxamide]
- effect of KEAP1 knockdown on cytotoxicity [4]: no significant effect
- effect of KEAP1 knockdown on cytotoxicity (H1299 lung cancer cells): no significant effect

Structure (SMILES): COc1cc(/C=C/C(=O)N2CCC=CC2=O)cc(OC)c1OCC(=O)N1CCC(c2cc(OC(C)C)c(Nc3ncc(Cl)c(Nc4ccccc4S(=O)(=O)C(C)C)n3)cc2C)CC1 [compound 819, (E)-1-(3-(4-(2-(4-(4-((5-chloro-4-((2-(isopropylsulfonyl)phenyl)amino)pyrimidin-2-yl)amino)-5-isopropoxy-2-methylphenyl)piperidin-1-yl)-2-oxoethoxy)-3,5-dimethoxyphenyl)acryloyl)-5,6-dihydropyridin-2(1H)-one]
- EML4-ALK degradation (EML4-ALK; NCI-H2228 NSCLC cells): can degrade EML4-ALK in a concentration-dependent manner

- time to almost complete degradation of CDK9 (CDK9 [1]; 0.1 μM, time course): ≤ 8 h
- CDK9 degradation (CDK9 [1]; [15]): can induce CDK9 degradation
- CDK9 degradation (CDK9 [1]; short-term treatment (6 h)): potently degrade CDK9
- duration of CDK9 degradation after removal of compound from the culture (CDK9 [1]; washout): up to 18 h
- CDK9 level (global proteome) (CDK9 [3]; 0.1 μM for 1 h and 6 h): significant reduction of CDK9
- CDK10 degradation (CDK10 [2]): potently degrade CDK10
- CDK9 degradation (CDK9 [11]): potently degraded CDK9
- number of E3 ligases whose interaction with CDK9 is induced (V5-TurboID-CDK9; 293T cells expressing V5-TurboID-CDK9): 6 E3 ligases
- CDK9 degradation after ectopic expression of Halo-tagged KEAP1 (CDK9 [13]; KEAP1 stable knockout H1299 cells, 0.1 μM, 6 h): rescued CDK9 degradation
- CDK9 degradation after depleting KEAP1 (CDK9 [13]; siRNA and CRISPR-Cas9 knock down/out of KEAP1, H1299 cells): blocked
Structure (SMILES): COc1cc(/C=C/C(=O)N2CCC=CC2=O)cc(OC)c1OCCN1CCN(C(=O)CN2CCC(C(=O)Nc3ncc(SCc4ncc(C(C)(C)C)o4)s3)CC2)CC1 [compound 955, (E)-N-(5-(((5-(tert-butyl)oxazol-2-yl)methyl)thio)thiazol-2-yl)-1-(2-(4-(2-(2,6-dimethoxy-4-(3-oxo-3-(6-oxo-3,6-dihydropyridin-1(2H)-yl)prop-1-en-1-yl)phenoxy)ethyl)piperazin-1-yl)-2-oxoethyl)piperidine-4-carboxamide]
- induction of PARP cleavage (MOLT4 cells): more potent in inducing PARP cleavage than SNS-032
- competition with IA-alkyne for binding to KEAP1 (purified KEAP1 protein): can compete with IA-alkyne to covalently bind to KEAP1 in a concentration-dependent manner
- formation of CDK9:KEAP1 ternary complex (nanoBRET) [8]: can induce the formation of the CDK9:955:KEAP1 ternary complex in a dose-dependent manner
- potency relative to SNS-032 in downregulation of c-Myc and MCL-1 expression (c-Myc and MCL-1 [9]): about 10 fold
- downregulation of CDK9-dependent transcription [10]: more potent than SNS-032
- c-Myc and MCL-1 expression (c-Myc and MCL-1 [12]): downregulated c-Myc and MCL-1
- effect of KEAP1 knockdown on cytotoxicity [4]: attenuated the cytotoxicity
- effect of KEAP1 knockdown on cytotoxicity (H1299 lung cancer cells): attenuated the cytotoxicity
- KEAP1 pulled down (immunoblot of TurboID-bait assay) (V5-TurboID-CDK9; 293T cells, in the presence of biotin, with vs without compound): significantly more KEAP1 can be pulled down
